Source: US9192611B2, “Formulations comprising methylthioninium chloride” (WisTa Laboratories Ltd., priority 2010, dated 2015)

Assays:
[1] = Thermodynamic stability of MTC hydrates as a function of RH and temperature; conditions: any T and RH; kinetically stable in a certain range
[2] = background statement; cited from earlier work

Thermodynamic stability, in words [1] | SMILES | RH down to which high kinetic stability is observed [2]
not thermodynamically stable | CN(C)c1ccc2nc3ccc(=[N+](C)C)cc-3sc2c1 [Form B, Methylthioninium chloride] | 
 | CN(C)c1ccc2nc3ccc(=[N+](C)C)cc-3sc2c1 [Form A, Methylthioninium chloride] | less than 20%
